# From patent US10035799B2, “COMT inhibiting methods and compositions” (Lieber Institute for Brain Development, priority 2015, dated 2018)
# Biological target: T1, catechol-O-methyltransferase (COMT) (Homo sapiens, UniProt P21964)
# T1 construct: M51A variant) was expressed in HEK 293F cells
# T1 sequence (P21964 52-271 limits assumed): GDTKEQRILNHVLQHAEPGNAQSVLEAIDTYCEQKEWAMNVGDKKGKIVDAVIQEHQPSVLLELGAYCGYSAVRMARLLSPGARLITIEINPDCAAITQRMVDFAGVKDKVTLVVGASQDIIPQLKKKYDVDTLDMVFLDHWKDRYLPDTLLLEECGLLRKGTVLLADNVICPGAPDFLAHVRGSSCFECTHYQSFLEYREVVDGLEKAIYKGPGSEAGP
# Test: COMT inhibition assay (HTRF, production of S-adenosyl homocysteine)
# Format: biochemical
# Details: recombinant human COMT, HTRF SAH production; MB-COMT or S-COMT not stated for Table 1
# Method: The ability of compounds to inhibit the activity of catechol-O-methyltransferase (COMT) was determined by a homogenous time-resolved fluorescent (HTRF) assay (Lina et al, 2012; kit from CisBio, Codolet, France). This assay measures the production of S-adenosyl homocysteine (SAH) from the methyl donor S-adenosyl methionine. Recombinant human membrane bound COMT (MB-COMT; M51A variant) was expressed in HEK 293F cells using 293Fectin (Life Technologies, Gent, Belgium) and membranes prepared. The membranes were re-suspended in buffer (20 mM Tris/HCl pH 7; 10 mM glycerol; 2 mM MgCl2; 10 mM NaCl), aliquoted and stored at −80° C. Recombinant human soluble COMT(S-COMT), Va1158 variant and a hexa-His tag on the N-terminus, was purified using Ni-NTA chromatography, the His tag removed and stored in buffer as above.
# For the human MB-COMT assay, membranes (62 ng/well) were incubated with SAM (20 μM final, CisBio) and dopamine (1.5 μM final; Sigma H8502, Diegem, Belgium) in the presence or absence of varying concentrations (typically 10 concentrations ranging from 10 μM to 0.1 nM) of compound for 40 min at 37° C. in 384-well microtitre plates (10 μl per well final volume). The reaction was terminated by the addition of acylation buffer and the amount of SAH produced determined according to manufacturer's instructions. Specific inhibition as that inhibited by a high concentration of tolcapone (10 μM; synthesised at UCB) and all experiments were validated using a control curve to tolcapone.
# The human S-COMT assay was performed as above except that 0.15 ng enzyme/well was incubated with SAM (20 μM final) and dopamine (100 μM final) for 15 min at 37° C. and SAH production determined.
# HTRF readings were performed using a Perkin Elmer Envision and results expressed as concentration of SAH produced using a standard curve. Results were analysed using non-linear regression to the 4-parameter logistic equation and pIC50 (−log 10 concentration of drug which inhibits enzyme activity/SAH production by 50%) determined.
row,SMILES,"Activity range (pIC50, COMT inhibition)"
1,"Cc1cc(S(=O)(=O)N2C[C@@H](F)[C@H](F)C2)c2cccnc2c1O [Example 116, 5-[(3R,4R)-3,4-difluoropyrrolidin-1-yl]sulfonyl-7-methyl-quinolin-8-ol]",+ (a pIC50 of from about 4.5 to 6)
2,"Cc1ccc(CS(=O)(=O)c2ccc(O)c3ncccc23)cc1 [Example 32, 5-(p-tolylmethylsulfonyl)quinolin-8-ol]",++ (a pIC50 of from about great than 6 to 7)
3,"O=S(=O)(c1ccc(O)c2ncccc12)N1CCCC1c1cccnc1 (centres unmarked) [Example 72, 5-[2-(3-pyridyl)pyrrolidin-1-yl]sulfonylquinolin-8-ol]",++ (a pIC50 of from about great than 6 to 7)
4,"COc1ccc(S(=O)(=O)c2ccc(O)c3ncccc23)cc1 [Example 18, 5-(4-methoxyphenyl)sulfonylquinolin-8-ol]",+++ (a pIC50 of above about 7)
5,"O=S(=O)(c1cc(Cl)c(O)c2ncccc12)N1CCN(Cc2ccc(F)cc2)CC1 [Example 112, 7-chloro-5-[4-[(4-fluorophenyl)methyl]piperazin-1-yl]sulfonyl-quinolin-8-ol]",+ (a pIC50 of from about 4.5 to 6)
6,"O=S(=O)(c1ccc(O)c2ncccc12)N1CCCC1c1ccncc1 (centres unmarked) [Example 79, 5-[2-(4-pyridyl)pyrrolidin-1-yl]sulfonylquinolin-8-ol]",++ (a pIC50 of from about great than 6 to 7)
7,"O=S(=O)(c1ccc(F)cc1)c1ccc(O)c2ncccc12 [Example 2, 5-(4-fluorophenyl)sulfonylquinolin-8-ol]",+++ (a pIC50 of above about 7)
8,"COCCCN1CCN(S(=O)(=O)c2ccc(O)c3ncccc23)CC1 [Example 89, 5-[4-(3-methoxypropyl)piperazin-1-yl]sulfonylquinolin-8-ol]",++ (a pIC50 of from about great than 6 to 7)
9,"CN(Cc1ccc(F)cc1)S(=O)(=O)c1ccc(O)c2ncccc12 [Example 49, N-[(4-fluorophenyl)methyl]-8-hydroxy-N-methyl-quinoline-5-sulfonamide]",+++ (a pIC50 of above about 7)
10,"Cc1ccc(S(=O)(=O)c2cc(I)c(O)c3ncccc23)cc1 [Example 107, 7-iodo-5-(p-tolylsulfonyl)quinolin-8-ol]",++ (a pIC50 of from about great than 6 to 7)
11,"O=S(=O)(c1ccc(O)c2ncccc12)N1CCC(c2ccc(F)cc2)C1 (centres unmarked) [Example 62, 5-(3-(4-fluorophenyl)pyrrolidin-1-yl)sulfonylquinolin-8-ol]",+++ (a pIC50 of above about 7)
12,"O=C1NCN(c2ccccc2)C12CCN(S(=O)(=O)c1ccc(O)c3ncccc13)CC2 [Example 87, 8-[(8-hydroxy-5-quinolyl)sulfonyl]-1-phenyl-1,3,8-triazaspiro[4.5]decan-4-one]",+++ (a pIC50 of above about 7)
13,"Cc1cc(S(=O)(=O)N2CCCC2)c2cccnc2c1O [Example 111, 7-methyl-5-pyrrolidin-1-ylsulfonyl-quinolin-8-ol]",+++ (a pIC50 of above about 7)
14,"CN(C)CCN(Cc1ccccc1)S(=O)(=O)c1ccc(O)c2ncccc12 [Example 57, N-benzyl-N-(2-dimethylaminoethyl)-8-hydroxy-quinoline-5-sulfonamide]",++ (a pIC50 of from about great than 6 to 7)
15,"O=S(=O)(c1ccc(O)c2ncccc12)C1CCCC1 [Example 31, 5-cyclopentylsulfonylquinolin-8-ol]",+++ (a pIC50 of above about 7)
16,"N#Cc1ccccc1N1CCN(S(=O)(=O)c2ccc(O)c3ncccc23)CC1 [Example 90, 2-[4-[(8-hydroxy-5-quinolyl)sulfonyl]piperazin-1-yl]benzonitrile]",+++ (a pIC50 of above about 7)

row,SMILES,"Activity range (pIC50, COMT inhibition)"
1,"O=S(=O)(c1cccc(-c2ccc(F)c(Cl)c2)c1)c1ccc(O)c2ncccc12 [Example 24, 5-[3-(3-chloro-4-fluoro-phenyl)phenyl]sulfonylquinolin-8-ol]",+++ (a pIC50 of above about 7)
2,"C[C@@H](c1ccccc1)N(C)S(=O)(=O)c1ccc(O)c2ncccc12 [Example 51, 8-hydroxy-N-methyl-N-[(1S)-1-phenylethyl]quinoline-5-sulfonamide]",+++ (a pIC50 of above about 7)
3,"CCN(CC)S(=O)(=O)c1ccc(O)c2ncccc12 [Example 68, N,N-diethyl-8-hydroxy-quinoline-5-sulfonamide]",++ (a pIC50 of from about great than 6 to 7)
4,"Cc1cc(F)ccc1S(=O)(=O)c1ccc(O)c2ncccc12 [Example 20, 5-(4-fluoro-2-methyl-phenyl)sulfonylquinolin-8-ol]",+++ (a pIC50 of above about 7)
5,"Cc1cc(S(=O)(=O)N2CCN(Cc3ccc(F)cc3)CC2)c2cccnc2c1O [Example 114, 5-[4-[(4-fluorophenyl)methyl]piperazin-1-yl]sulfonyl-7-methyl-quinolin-8-ol]",+ (a pIC50 of from about 4.5 to 6)
6,"CC(C)(C)OC(=O)N1CCN(S(=O)(=O)c2ccc(O)c3ncccc23)CC1 [Example 103, tert-butyl 4-[(8-hydroxy-5-quinolyl)sulfonyl]piperazine-1-carboxylate]",++ (a pIC50 of from about great than 6 to 7)
7,"Cc1ccccc1C1CCCN1S(=O)(=O)c1ccc(O)c2ncccc12 (centres unmarked) [Example 71, 5-[2-(o-tolyl)pyrrolidin-1-yl]sulfonylquinolin-8-ol]",+++ (a pIC50 of above about 7)
8,"O=S(=O)(c1ccc2ccccc2c1)c1ccc(O)c2ncccc12 [Example 12, 5-(2-naphthylsulfonyl)quinolin-8-ol]",+++ (a pIC50 of above about 7)
9,"O=S(=O)(c1cccc(-c2ccccc2)c1)c1ccc(O)c2ncccc12 [Example 6, 5-(3-phenylphenyl)sulfonylquinolin-8-ol]",+++ (a pIC50 of above about 7)
10,"Cc1cc(C)cc(S(=O)(=O)c2ccc(O)c3ncccc23)c1 [Example 4, 5-(3,5-dimethylphenyl)sulfonylquinolin-8-ol]",+++ (a pIC50 of above about 7)
11,"O=S(=O)(c1cccc(Cl)c1)c1ccc(O)c2ncccc12 [Example 14, 5-(3-chlorophenyl)sulfonylquinolin-8-ol]",+++ (a pIC50 of above about 7)
12,"O=S(=O)(c1ccc(O)c2ncccc12)N1CCNCC1 [Example 104, 5-piperazin-1-ylsulfonylquinolin-8-ol]",+ (a pIC50 of from about 4.5 to 6)
13,"O=S(=O)(c1cccc(-c2ccncc2)c1)c1ccc(O)c2ncccc12 [Example 23, 5-[3-(4-pyridyl)phenyl]sulfonylquinolin-8-ol]",+++ (a pIC50 of above about 7)
14,"Cc1ccc(S(=O)(=O)c2cc(Cl)c(O)c3ncccc23)cc1 [Example 109, 7-chloro-5-(p-tolylsulfonyl)quinolin-8-ol]",+++ (a pIC50 of above about 7)
15,"O=S(=O)(c1ccncc1)c1ccc(O)c2ncccc12 [Example 17, 5-(4-pyridylsulfonyl)quinolin-8-ol]",++ (a pIC50 of from about great than 6 to 7)
16,"Cc1ccc(CNS(=O)(=O)c2ccc(O)c3ncccc23)cc1 [Example 44, 8-hydroxy-N-(4-methylbenzyl)quinoline-5-sulfonamide]",++ (a pIC50 of from about great than 6 to 7)
